Patent US20200131227A1, “POLYPEPTIDE WITH TUMOUR BINDING ACTIVITY” (RUPRECHT-KARLS-UNIVERSITÄT HEIDELBERG, priority 2017, published 2020)
Where a SMILES comes first, the peptide text is derived from it. Bridges are numbered along the chain shown (N, C = ends). The star is where a group is joined. DOTA = O=C(O)CN1CCN(CC(=O)O)CCN(CC(=O)*)CCN(CC(=O)O)CC1

Legend:
tumor-free lymph nodes = experiment: Histochemical peptide staining of carcinoma-free lymph nodes; design: species or system human
Protocol: Staining with the biotinylated PEG(12)-SFITGv6 peptide was performed on acetone-fixed cryosections (5 μm) of tumor tissues after blocking of unspecific binding using the Avidin/Biotin Blocking Kit (SP-2001, Vector Laboratories). A stock solution of the lyophilized peptide was prepared by dilution in 5% aqueous DMSO. Slices were incubated overnight at 4° C. with 10^-5 M peptide concentration in antibody diluent (DAKO). Detection of bound peptide was carried out with the Vectastain Elite ABC Kit (PK-6100, Vector Laboratories) according to manufacturer's protocol. Peptide specificity was ensured by a scrambled (GRD) PEG(12)-SFITGv6 derivate, the somatostatin receptor ligand DOTATOC and negative controls (without peptide or primary antibody) Staining results were assessed by bright field microscopy (BX50) with the SC30 camera and the cell Sense software (all Olympus).

[1] = test system: HNSCC cell lines HNO97, HNO399, and HNO223; type: binding, human
Protocol: For the assessment of the peptide binding capacity in vitro, 2.5-4×10^5 cells were seeded into 6-well plates and cultivated for 48 h. ^125I-labeled peptide resuspended in 1 mL serum-free medium was added and incubated for either 10 min or 60 min with or without different concentrations of unlabeled peptide (10^−4-10^−11 M). Afterwards, cell monolayers were washed three times with 1 mL phosphate-buffered saline (pH 7.4) to remove unbound peptide and the cells were harvested with 1.4 mL lysis buffer (0.3 M NaOH). To evaluate kinetic properties the cells were exposed to ^177Lu-DOTA-labeled peptides for 10, 30, 60, 120, and 240 min, respectively, and lysed as described. For the efflux experiments the cells were incubated with ^177Lu-DOTA-labeled peptides for 60 min. Thereafter, radioactive medium was replaced by non-radioactive medium and cell monolayers were incubated for additional 60, 120, and 240 min and afterwards lysed as described earlier. The internalization was assessed after exposure of the cells to ^177Lu-DOTA-labeled peptides for 10, 30, 60, 120, and 240 min at 37° C. Unspecifically bound peptide was removed from the surface by incubation with 1 M glycine-HCl solution (pH 2.2) for 10 min. The monolayer cell was rinsed with PBS and cells were lysed as described before. Radioactivity was determined in a y-counter and calculated as percentage of the applied dose per 1×10^6 cells. […]

[2] = Serum stability assay (radio-HPLC); type: in vitro ADME, human
Protocol: Five MBq of the purified ^131I-radiolabeled peptide was incubated in 300 μL human serum at 37° C. After different time intervals (15 min to 24 hours) 20 μL serum was precipitated with 40 μL acetonitrile. The stability of the labeled peptide in the supernatant was monitored by radio-HPLC at selected time points using a chromolith performance RP18ec column (3 mm×100 mm) equipped with a gamma detector (Packard COBRA™ Auto-Gamma, GMI). Separation condition was a gradient of 0% to 60% aqueous acetonitrile supplemented with 0.1% TFA over 10 min with a flow rate of 2 mL/min.

HNO399 cells = experiment: In vitro binding on HNO399 cells; type: cell-based, human; settings: Example 2, 10 min to 480 min (FIG. 16)
Protocol: For the assessment of the peptide binding capacity in vitro, 2.5-4×10^5 cells were seeded into 6-well plates and cultivated for 48 h. ^125I-labeled peptide resuspended in 1 mL serum-free medium was added and incubated for either 10 min or 60 min with or without different concentrations of unlabeled peptide (10^−4-10^−11 M). Afterwards, cell monolayers were washed three times with 1 mL phosphate-buffered saline (pH 7.4) to remove unbound peptide and the cells were harvested with 1.4 mL lysis buffer (0.3 M NaOH). […] For the efflux experiments the cells were incubated with ^177Lu-DOTA-labeled peptides for 60 min. Thereafter, radioactive medium was replaced by non-radioactive medium and cell monolayers were incubated for additional 60, 120, and 240 min and afterwards lysed as described earlier. […] Unspecifically bound peptide was removed from the surface by incubation with 1 M glycine-HCl solution (pH 2.2) for 10 min. The monolayer cell was rinsed with PBS and cells were lysed as described before. Radioactivity was determined in a y-counter and calculated as percentage of the applied dose per 1×10^6 cells. Experiments were performed three times, and three repetitions per independent experiment were acquired.

ovarian cancer = experiment: Scintigraphy of ovarian cancer patients; type: in vivo, human; settings: 1 day after 6 GBq and 7.4 GBq
Protocol: PET/CT scans of tumor patients and body scintigraphy were performed as described in Example 1.

Capan-2 cells = experiment: In vitro binding, internalization and efflux on Capan-2 cells; type: cell-based, human
Protocol: For in vitro binding Studies, 4*10^5-6*10^5 cells were seeded in 6 well plates and cultivated for 24 to 48 hours. At the start of the experiment the medium was replaced with 1 ml serum free medium with a definite amount of radioactive labeled peptide per well. For normal binding assays the cells were incubated for 60 min at 37° C. and afterwards washed 3 times with PBS (pH 7.4). Cells were lysed with 2 times 0.5 ml of a 0.3 M NaOH +0.2% SDS lysis-buffer. Competition assays were performed with ^125I-labeled and unlabelled (10^−6 to 10^−11M) peptide and incubated at the same time for 60 min.
Cells were incubated for 10 to 240 min with ^177Lu-labelled peptide in internalization assays. After the washing steps, the cells were incubated with 1 ml glycine-HCl (1 M, pH 2.2) buffer for 10 min to remove surface bound peptide. Prior to the lyses the cells were washed again. Values are given as percentage of applied dose per 10^6 cells.
The efflux was tested with ^177Lu-labeled peptides. After 60 min incubation the radioactive medium was removed and 1 ml fresh serum-free medium was added. After additional incubation of 60, 120 or 240 min, cell bound activity was measured.

| Structure (SMILES) | histochemical peptide staining result (tumor-free lymph nodes) | IC50 [1] [nM] | proteolytic stability in human serum [2] | maximum binding capacity of ^177Lu-DOTA-labeled peptide (kinetics) (HNO399 cells) [%] | scintigraphic accumulation (ovarian cancer) | cell binding of ^177Lu-DOTA-labeled peptide (Capan-2 cells; after 60 min) [%] | internalization rate in comparison of the three peptides (Capan-2 cells; after 4 hours) | efflux (released into the culture medium) (Capan-2 cells; during 4 hours following 60 min exposure) [%] |
| --- | --- | --- | --- | --- | --- | --- | --- | --- |
| CSCC[C@@H]1NC(=O)[C@H](CC(C)C)NC(=O)[C@H](CC(=O)O)NC(=O)CNC(=O)[C@H](CCCNC(=N)N)NC(=O)[C@H](Cc2ccccc2)NC(=O)[C@H]([C@@H](C)O)NC(=O)[C@@H](NC(=O)[C@H](CCCNC(=N)N)NC(=O)CN)CSSC[C@@H](C(=O)N[C@@H](Cc2ccc(O)cc2)C(=O)N2CCC[C@H]2C(=O)N[C@@H](CC(=O)O)C(=O)O)NC(=O)[C@H](CC(C)C)NC(=O)[C@H](CCC(N)=O)NC1=O [SFITGv6, NH2-G-R-C1-T-F-R-G-D-L-M-Q-L-C1-Y-P-D-COOH] (H-GRCTFRGDLMQLCYPD-OH; disulfide 3-13) | did not show any SFITGv6-specificy | 14.1 | outstanding stability in human serum over a period of 24 hours |  |  |  |  |  |
| CC(C)C[C@@H]1NC(=O)[C@H](CC(=O)O)NC(=O)CNC(=O)[C@H](CCCNC(=N)N)NC(=O)CNC(=O)[C@H]([C@@H](C)O)NC(=O)[C@@H](NC(=O)[C@H](CCCNC(=N)N)NC(=O)CNC(=O)CN2CCN(CC(=O)O)CCN(CC(=O)O)CCN(CC(=O)O)CC2)CSSC[C@@H](C(=O)N[C@@H](Cc2ccc(O)cc2)C(=O)N2CCC[C@H]2C(=O)N[C@@H](CC(=O)O)C(N)=O)NC(=O)[C@H](CC(C)C)NC(=O)[C@H](CCCNC(=N)N)NC(=O)CNC1=O [^177Lu-DOTA-SFLAP3, metal not drawn] ({DOTA}-GRCTGRGDLGRLCYPD-NH2; disulfide 3-13; N-terminus and C-terminus assumed) |  |  |  | 4.31 | moderate to good accumulation in the metastases | 9.5 | highest internalization rate | 50 |
